Results: US12187701B2, “Taire family kinase inhibitors and uses thereof” (Dana-Farber Cancer Institute, Inc., priority 2018, dated 2025)

Experiments:
HCT116 cells = test: Antiproliferation assay, Cell Titer Glo, 72 hours; type: cell-based; details: Homo sapiens, HCT-116, 72 h
Outline: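 Luminescent CellTiter-Glo read-out after 72 h compound exposure (four-fold dilutions, 37 °C, 5% CO2) of HCT116 cells plated at 750 cells/well in McCoy's 5A + 10% FBS. Biological quadruplicates; IC50 from non-linear curve fitting.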

Cdk14/CycY = Cdk14/CycY (Homo sapiens (Human), UniProt O94921); test: Lanthascreen Eu kinase binding assay for Cdk14/CycY with 30 minute pre-incubation; details: 30 minute pre-incubation of kinase with compound; read-out: IC50 CDK14 binding by Lanthascreen
Procedure: Lanthascreen Eu kinase binding assays were conducted for Cdk14/CycY largely as performed in the commercial assay service by Life Technologies, but included a 30 minute pre-incubation step of the kinase with candidate compounds to facilitate covalent bond formation.

Cdk14 [1] = biological target: T1, Cdk14 (Homo sapiens (Human), UniProt O94921); test: Cellular pull down with biotinylated probe, CDK14; type: cell-based; details: HEK293 cells overexpressing Cdk14-flag
Procedure: HEK293 cells overexpressing a Cdk14-flag fusion protein were treated with candidate compounds for 4 hours. Cells were washed with PBS, harvested and lysed in Pierce IP buffer with protease and phosphatase inhibitors (Roche). […] To enhance pulldown, lysates were incubated at room temperature for an additional 2 hours. […] Beads were then washed 3 times with Pierce IP buffer, then boiled at 95° C. for 5 minutes in 2× LDS+10% β-mercaptoethanol. Proteins of interest engaged by the biotinylated compound were then assessed using western blotting.
Target sequence in this assay (O94921 whole entry, the tested form may be a part): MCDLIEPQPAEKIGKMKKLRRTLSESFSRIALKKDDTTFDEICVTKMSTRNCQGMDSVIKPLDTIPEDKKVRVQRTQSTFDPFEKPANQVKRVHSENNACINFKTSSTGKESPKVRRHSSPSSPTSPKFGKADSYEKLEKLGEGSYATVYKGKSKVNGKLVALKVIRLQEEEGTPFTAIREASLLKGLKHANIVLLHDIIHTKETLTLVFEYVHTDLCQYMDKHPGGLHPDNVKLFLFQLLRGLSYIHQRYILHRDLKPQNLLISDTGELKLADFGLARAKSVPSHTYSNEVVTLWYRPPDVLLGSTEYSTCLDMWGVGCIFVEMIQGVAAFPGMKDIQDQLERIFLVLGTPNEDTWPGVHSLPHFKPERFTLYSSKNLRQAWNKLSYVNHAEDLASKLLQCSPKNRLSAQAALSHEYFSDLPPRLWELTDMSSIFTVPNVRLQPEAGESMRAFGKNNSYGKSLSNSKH

Cdk14 [2] = biological target: T1, Cdk14; test: Cdk14 33P kinase assay (Reaction Biology Corp.); type: biochemical
Target sequence in this assay (O94921 whole entry, looked up, the tested form may be a part): as the sequence (O94921 whole entry, the tested form may be a part) above
Target sequence in this assay (Q8ND76 whole entry partner, looked up, the tested form may be a part): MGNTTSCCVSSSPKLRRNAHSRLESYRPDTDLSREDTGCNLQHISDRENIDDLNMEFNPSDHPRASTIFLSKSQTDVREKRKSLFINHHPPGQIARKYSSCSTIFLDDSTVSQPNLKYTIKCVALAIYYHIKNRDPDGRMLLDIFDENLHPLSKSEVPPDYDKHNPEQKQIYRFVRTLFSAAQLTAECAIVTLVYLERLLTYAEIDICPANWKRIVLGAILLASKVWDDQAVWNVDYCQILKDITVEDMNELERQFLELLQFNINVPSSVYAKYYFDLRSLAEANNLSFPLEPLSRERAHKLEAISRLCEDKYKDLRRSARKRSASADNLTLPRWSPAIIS

CDK16/CycY = CDK16/CycY (Homo sapiens (Human), UniProt Q00536); test: Lanthascreen Eu kinase binding assay for CDK16/CycY; details: read-out: IC50 CDK16 Lanthascreen binding
Procedure: Lanthascreen Eu kinase binding assays were conducted for CDK16/CycY at Life Technologies.

CDK2/CycA = CDK2/CycA (Homo sapiens (Human), UniProt P24941); test: Z'LYTE kinase assay for CDK2/CycA at Km ATP; type: biochemical; details: read-out: IC50 CDK2 Z′LYTE kinase assay
[3] = 4 hours treatment, some cells print Y or N instead of a concentration

Cdk14/CycY, sequence (O94921 whole entry): as the sequence (O94921 whole entry, the tested form may be a part) above
Cdk14/CycY, sequence (Q8ND76 whole entry partner): as the sequence (Q8ND76 whole entry partner, looked up, the tested form may be a part) above
CDK16/CycY, sequence (Q00536 whole entry): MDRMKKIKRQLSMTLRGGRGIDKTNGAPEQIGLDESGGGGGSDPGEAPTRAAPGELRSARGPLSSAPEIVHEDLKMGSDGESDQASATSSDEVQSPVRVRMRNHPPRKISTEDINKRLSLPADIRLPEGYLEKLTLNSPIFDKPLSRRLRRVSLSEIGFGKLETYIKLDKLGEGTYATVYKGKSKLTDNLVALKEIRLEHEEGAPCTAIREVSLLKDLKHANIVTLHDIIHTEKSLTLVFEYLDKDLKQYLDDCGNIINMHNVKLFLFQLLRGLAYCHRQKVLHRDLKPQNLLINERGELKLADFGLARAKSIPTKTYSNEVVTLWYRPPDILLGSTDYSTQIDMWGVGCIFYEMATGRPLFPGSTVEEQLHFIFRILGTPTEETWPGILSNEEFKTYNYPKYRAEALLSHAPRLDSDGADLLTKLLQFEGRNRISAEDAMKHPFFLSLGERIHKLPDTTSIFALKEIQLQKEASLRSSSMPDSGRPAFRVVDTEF
CDK16/CycY, sequence (Q8ND76 whole entry partner): as the sequence (Q8ND76 whole entry partner, looked up, the tested form may be a part) above

SMILES | IC50 (HCT116 cells) | IC50 (Cdk14/CycY) | Cellular Potency by Pulldown (Cdk14 [1]; [3]) | IC50 (Cdk14 [2]) | IC50 (CDK16/CycY) | IC50 (CDK2/CycA) | Cellular Potency by Pulldown (Cdk14 [1]; cell prints LOW (>1 uM)) | Cellular Potency by Pulldown (Cdk14 [1]; cell prints LOW (>1 μM))
C=CC(=O)Nc1cccc(C(=O)Nc2ccc(NC(=O)c3n[nH]cc3NC(=O)c3c(Cl)cccc3Cl)cc2)c1 [FMF-03-205-1, N-(4-(3-acrylamidobenzamido)phenyl)-4-(2,6-dichlorobenzamido)-1H-pyrazole-3-carboxamide] | 6 nM | 1010 nM | 500 nM |  |  |  |  | 
CN(C)C/C=C/C(=O)Nc1cccc(S(=O)(=O)N2CCC(NC(=O)c3n[nH]c(-c4ccccc4)c3NC(=O)c3c(Cl)cccc3Cl)CC2)c1 [FMF-04-197-1, (E)-4-(2,6-dichlorobenzamido)-N-(1-((3-(4-(dimethylamino)but-2-enamido)phenyl)sulfonyl)piperidin-4-yl)-5-phenyl-1H-pyrazole-3-carboxamide] | > 10000 nM | 28 nM |  |  | 5900 nM | 5900 nM |  | 
CC(C)c1[nH]nc(C(=O)NC2CCN(S(=O)(=O)c3cccc(NC(=O)/C=C/CN(C)C)c3)CC2)c1NC(=O)c1c(Cl)cccc1Cl [FMF-04-199-1, (E)-4-(2,6-dichlorobenzamido)-N-(1-((3-(4-(dimethylamino)but-2-enamido)phenyl)sulfonyl)piperidin-4-yl)-5-isopropyl-1H-pyrazole-3-carboxamide] | > 10000 nM | 1000 nM |  |  | 8900 nM | > 10000 nM |  | 
CN(C)C/C=C/C(=O)Nc1cccc(CN2CCC(NC(=O)c3n[nH]cc3NC(=O)c3c(F)cc(F)cc3F)CC2)c1 [FMF-04-200-2, (E)-N-(1-(3-(4-(dimethylamino)but-2-enamido)benzyl)piperidin-4-yl)-4-(2,4,6-trifluorobenzamido)-1H-pyrazole-3-carboxamide] | 293 nM | 17 nM |  |  | 110 nM | 508 nM |  | 
C=CC(=O)Nc1ccc(CNC(=O)c2n[nH]cc2NC(=O)c2c(Cl)cccc2Cl)cc1 [FMF-05-064-1, N-(4-acrylamidobenzyl)-4-(2,6-dichlorobenzamido)-1H-pyrazole-3-carboxamide] | 117 nM | 1700 nM |  |  | 478 nM | 15 nM |  | 
CN(C)C/C=C/C(=O)Nc1ccc(CNC(=O)c2n[nH]cc2NC(=O)c2c(Cl)cccc2Cl)cc1 [FMF-05-064-2, (E)-4-(2,6-dichlorobenzamido)-N-(4-(4-(dimethylamino)but-2-enamido)benzyl)-1H-pyrazole-3-carboxamide] | 4700 nM | 108 nM |  |  |  |  |  | LOW (>1 μM)
C=CC(=O)Nc1cccc(CNC(=O)c2n[nH]cc2NC(=O)c2c(Cl)cccc2Cl)c1 [FMF-05-067-1, N-(3-acrylamidobenzyl)-4-(2,6-dichlorobenzamido)-1H-pyrazole-3-carboxamide] | 8500 nM |  |  | > 1000 nM |  |  |  | 
CN(C)C/C=C/C(=O)Nc1ccc(N2CCC(NC(=O)c3n[nH]cc3NC(=O)c3c(Cl)cccc3Cl)CC2)cc1 [FMF-05-073-2, (E)-4-(2,6-dichlorobenzamido)-N-(1-(4-(4-(dimethylamino)but-2-enamido)phenyl)piperidin-4-yl)-1H-pyrazole-3-carboxamide] | 541 nM | 45 nM |  |  | 27.7 nM | 17 nM |  | 
CN(C)C/C=C/C(=O)Nc1cccc(N2CCC(NC(=O)c3n[nH]cc3NC(=O)c3c(Cl)cccc3Cl)CC2)c1 [FMF-05-085-2, (E)-4-(2,6-dichlorobenzamido)-N-(1-(3-(4-(dimethylamino)but-2-enamido)phenyl)piperidin-4-yl)-1H-pyrazole-3-carboxamide] | 427 nM | 27 nM |  |  | 74.4 nM | 20 nM |  | 
COc1cccc(F)c1C(=O)Nc1c[nH]nc1C(=O)NC1CCN(Cc2cccc(NC(=O)/C=C/CN(C)C)c2)CC1 [IHK-01-013-2, (E)-N-(1-(3-(4-(dimethylamino)but-2-enamido)benzyl)piperidin-4-yl)-4-(2-fluoro-6-methoxybenzamido)-1H-pyrazole-3-carboxamide] | 77 nM | 4.2 nM |  |  | 7.4 nM | 53 nM |  | 

Next, values leading:

IC50 (HCT116 cells) | IC50 (Cdk14/CycY) | Cellular Potency by Pulldown (Cdk14 [1]; [3]) | IC50 (Cdk14 [2]) | IC50 (CDK16/CycY) | IC50 (CDK2/CycA) | Cellular Potency by Pulldown (Cdk14 [1]; cell prints LOW (>1 uM)) | Cellular Potency by Pulldown (Cdk14 [1]; cell prints LOW (>1 μM)) | SMILES
114 nM | > 1000 nM |  | 284 nM |  |  |  |  | C=CC(=O)Nc1cccc(S(=O)(=O)N2CCC(NC(=O)c3n[nH]cc3NC(=O)c3c(F)cccc3F)CC2)c1 [FMF-04-096-1, N-(1-((3-acrylamidophenyl)sulfonyl)piperidin-4-yl)-4-(2,6-difluorobenzamido)-1H-pyrazole-3-carboxamide]
9 nM | 1.6 nM |  | 88 nM |  |  |  |  | C=CC(=O)Nc1cccc(S(=O)(=O)N2CCC(NC(=O)c3n[nH]cc3NC(=O)c3c(F)cccc3OC)CC2)c1 [FMF-04-097-1, N-(1-((3-acrylamidophenyl)sulfonyl)piperidin-4-yl)-4-(2-fluoro-6-methoxybenzamido)-1H-pyrazole-3-carboxamide]
< 1 nM | 0.4 nM | 100 nM |  |  |  |  |  | C=CC(=O)Nc1cccc(S(=O)(=O)N2CCC(NC(=O)c3n[nH]cc3NC(=O)c3c(Cl)ccc(OC)c3Cl)CC2)c1 [FMF-04-184-1, N-(1-((3-acrylamidophenyl)sulfonyl)piperidin-4-yl)-4-(2,6-dichloro-3-methoxybenzamido)-1H-pyrazole-3-carboxamide]
23 nM | 6.4 nM | 100 nM |  | 1.8 nM | 3.5 nM |  |  | COc1ccc(Cl)c(C(=O)Nc2c[nH]nc2C(=O)NC2CCN(S(=O)(=O)c3cccc(NC(=O)/C=C/CN(C)C)c3)CC2)c1Cl [FMF-04-184-2, (E)-4-(2,6-dichloro-3-methoxybenzamido)-N-(1-((3-(4-(dimethylamino)but-2-enamido)phenyl)sulfonyl)piperidin-4-yl)-1H-pyrazole-3-carboxamide]
440 nM | 3 nM |  |  | 9.8 nM | 2.8 nM |  |  | CN(C)C/C=C/C(=O)Nc1cccc(S(=O)(=O)N2CCC(NC(=O)c3n[nH]cc3NC(=O)c3ccccc3)CC2)c1 [FMF-05-027-2, (E)-4-benzamido-N-(1-((3-(4-(dimethylamino)but-2-enamido)phenyl)sulfonyl)piperidin-4-yl)-1H-pyrazole-3-carboxamide]
> 10000 nM | 48 nM |  |  |  |  | LOW (>1 uM) |  | C=CC(=O)Nc1cccc(S(=O)(=O)N2CCC(NC(=O)c3n[nH]cc3NC(=O)c3c(OC)cc(OC)cc3OC)CC2)c1 [FMF-05-028-1, N-(1-((3-acrylamidophenyl)sulfonyl)piperidin-4-yl)-4-(2,4,6-trimethoxybenzamido)-1H-pyrazole-3-carboxamide]
395 nM | 14 nM |  |  | 17 nM | 5.71 nM |  |  | COc1ccccc1CC(=O)Nc1c[nH]nc1C(=O)NC1CCN(S(=O)(=O)c2cccc(NC(=O)/C=C/CN(C)C)c2)CC1 [FMF-05-117-1, (E)-N-(1-((3-(4-(dimethylamino)but-2-enamido)phenyl)sulfonyl)piperidin-4-yl)-4-(2-(2-methoxyphenyl)acetamido)-1H-pyrazole-3-carboxamide]
4110 nM | 49.5 nM |  |  | 11.3 nM | 24.6 nM |  |  | COc1cccc(OC)c1C(=O)Nc1c[nH]nc1C(=O)NC1CCN(S(=O)(=O)c2cccc(NC(=O)/C=C/CN(C)C)c2)CC1 [FMF-05-119-1, (E)-4-(2,6-dimethoxybenzamido)-N-(1-((3-(4-(dimethylamino)but-2-enamido)phenyl)sulfonyl)piperidin-4-yl)-1H-pyrazole-3-carboxamide]
